± gives the expanded uncertainty stated by the source.
Legend:
[1] = 101.33 kPa, Liquid; for viscosity: Falling or rolling sphere viscometry; for mass density: Vibrating tube method
[2] = wn = mass fraction of the nth substance listed; conditions: 101.3 kPa, Liquid, Vibrating tube method

`OCCO` [1,2-ethanediol] showed a viscosity ([1]; 303.15 K) of 13.66 ± 0.56 mPa·s, a mass density ([1]; 303.15 K) of 1106.3 ± 2 kg/m3 and a viscosity ([1]; 308.15 K) of 11.32 ± 0.46 mPa·s. It also gave a viscosity ([1]; 313.15 K) of 9.474 ± 0.39 mPa·s, a mass density ([1]; 313.15 K) of 1099.2 ± 2 kg/m3 and a viscosity ([1]; 318.15 K) of 8.016 ± 0.33 mPa·s. The viscosity ([1]; 323.15 K) was 6.849 ± 0.28 mPa·s, the mass density ([1]; 323.15 K) was 1092.1 ± 2 kg/m3 and the viscosity ([1]; 328.15 K) was 5.903 ± 0.24 mPa·s. The mass density ([1]; 328.15 K) was 1088.4 ± 2 kg/m3, the viscosity ([1]; 333.15 K) was 5.124 ± 0.21 mPa·s and the mass density ([1]; 333.15 K) was 1084.8 ± 2 kg/m3. The viscosity ([1]; 338.15 K) was 4.482 ± 0.18 mPa·s, the mass density ([1]; 338.15 K) was 1081.2 ± 2 kg/m3 and the viscosity ([1]; 343.15 K) was 3.946 ± 0.16 mPa·s. For the same compound, the mass density ([1]; 343.15 K) was 1077.5 ± 2 kg/m3, the viscosity ([1]; 348.15 K) was 3.496 ± 0.14 mPa·s and the mass density ([1]; 348.15 K) was 1073.7 ± 2 kg/m3. It also gave a viscosity ([1]; 353.15 K) of 3.112 ± 0.13 mPa·s and a mass density ([1]; 353.15 K) of 1070 ± 2 kg/m3.

Work on `OCCO` [1,2-ethanediol] + O yielded a mass density ([2]; 293.25 K, w1 = 1) of 1113.6 ± 2 kg/m3, a mass density ([2]; 293.45 K, w1 = 0.95) of 1109.3 ± 2 kg/m3 and a mass density ([2]; 303.15 K, w1 = 1) of 1106.5 ± 2 kg/m3. For the same compound, the mass density ([2]; 303.45 K, w1 = 0.95) was 1102.4 ± 2 kg/m3, the mass density ([2]; 313.15 K, w1 = 1) was 1099.2 ± 2 kg/m3 and the mass density ([2]; 323.25 K, w1 = 0.95) was 1088.3 ± 2 kg/m3. For the same compound, the mass density ([2]; 323.25 K, w1 = 1) was 1091.9 ± 2 kg/m3, the mass density ([2]; 333.25 K, w1 = 1) was 1084.6 ± 2 kg/m3 and the mass density ([2]; 333.35 K, w1 = 0.95) was 1081 ± 2 kg/m3.

With `O` [water] + OCCO the mass density ([2]; 323.25 K, w2 = 0) was 988 ± 2 kg/m3 and the mass density ([2]; 333.35 K, w2 = 0) was 983.1 ± 2 kg/m3.

— the NIST ThermoML archive (doi:10.1016/j.jct.2018.06.021)
